Consider eight compounds from publication PMC3084506 (Archives of Drug Information, 2011).

“Also recorded” adds a separate entry of the source. Read-outs that look alike come from different tables or passages of the source. Square brackets hold non-standard residues; d marks the D form. Peptide text beside a SMILES is read from it. Sar = CNCC(=O)O

Series [1] deals with P-gp (MDCKI-MDR1 cells). The note with it: studies done in our lab.
Series [2] addresses T1, P-gp (L-MDR1 cells) (Homo sapiens, UniProt P08183). The note with it: LLC-PK1 vs L-MDR1, cited from earlier work.
A further series relates to MDCKI cells. Briefly: Effect of inhibitors on ciprofloxacin bidirectional transport in MDCKI cells. The note with it: 25 µM ciprofloxacin, inhibitor concentrations as in Figure 4 legend.
The conditions of series [3]: humans; cited from earlier work.
The subject of the next series is OAT3. The note with it: cited from earlier work.
The nature of series [4]: Bidirectional transport study in MDCKI cells. The note with it: dog, MDCK. In kind it is in vitro ADME, canine.
A short description of series [5]: Bidirectional transport study in LLC-PK1 cells. Type of series: in vitro ADME. The note with it: pig.
In a further series the target is MRP1 (L-MRP1 cells) (Homo sapiens, UniProt P33527). In words: Bidirectional transport study in L-MRP1 cells. The note with it: LLC-PK1. In kind it is in vitro ADME.
Sequence of MRP1 (L-MRP1 cells) (P33527 whole entry): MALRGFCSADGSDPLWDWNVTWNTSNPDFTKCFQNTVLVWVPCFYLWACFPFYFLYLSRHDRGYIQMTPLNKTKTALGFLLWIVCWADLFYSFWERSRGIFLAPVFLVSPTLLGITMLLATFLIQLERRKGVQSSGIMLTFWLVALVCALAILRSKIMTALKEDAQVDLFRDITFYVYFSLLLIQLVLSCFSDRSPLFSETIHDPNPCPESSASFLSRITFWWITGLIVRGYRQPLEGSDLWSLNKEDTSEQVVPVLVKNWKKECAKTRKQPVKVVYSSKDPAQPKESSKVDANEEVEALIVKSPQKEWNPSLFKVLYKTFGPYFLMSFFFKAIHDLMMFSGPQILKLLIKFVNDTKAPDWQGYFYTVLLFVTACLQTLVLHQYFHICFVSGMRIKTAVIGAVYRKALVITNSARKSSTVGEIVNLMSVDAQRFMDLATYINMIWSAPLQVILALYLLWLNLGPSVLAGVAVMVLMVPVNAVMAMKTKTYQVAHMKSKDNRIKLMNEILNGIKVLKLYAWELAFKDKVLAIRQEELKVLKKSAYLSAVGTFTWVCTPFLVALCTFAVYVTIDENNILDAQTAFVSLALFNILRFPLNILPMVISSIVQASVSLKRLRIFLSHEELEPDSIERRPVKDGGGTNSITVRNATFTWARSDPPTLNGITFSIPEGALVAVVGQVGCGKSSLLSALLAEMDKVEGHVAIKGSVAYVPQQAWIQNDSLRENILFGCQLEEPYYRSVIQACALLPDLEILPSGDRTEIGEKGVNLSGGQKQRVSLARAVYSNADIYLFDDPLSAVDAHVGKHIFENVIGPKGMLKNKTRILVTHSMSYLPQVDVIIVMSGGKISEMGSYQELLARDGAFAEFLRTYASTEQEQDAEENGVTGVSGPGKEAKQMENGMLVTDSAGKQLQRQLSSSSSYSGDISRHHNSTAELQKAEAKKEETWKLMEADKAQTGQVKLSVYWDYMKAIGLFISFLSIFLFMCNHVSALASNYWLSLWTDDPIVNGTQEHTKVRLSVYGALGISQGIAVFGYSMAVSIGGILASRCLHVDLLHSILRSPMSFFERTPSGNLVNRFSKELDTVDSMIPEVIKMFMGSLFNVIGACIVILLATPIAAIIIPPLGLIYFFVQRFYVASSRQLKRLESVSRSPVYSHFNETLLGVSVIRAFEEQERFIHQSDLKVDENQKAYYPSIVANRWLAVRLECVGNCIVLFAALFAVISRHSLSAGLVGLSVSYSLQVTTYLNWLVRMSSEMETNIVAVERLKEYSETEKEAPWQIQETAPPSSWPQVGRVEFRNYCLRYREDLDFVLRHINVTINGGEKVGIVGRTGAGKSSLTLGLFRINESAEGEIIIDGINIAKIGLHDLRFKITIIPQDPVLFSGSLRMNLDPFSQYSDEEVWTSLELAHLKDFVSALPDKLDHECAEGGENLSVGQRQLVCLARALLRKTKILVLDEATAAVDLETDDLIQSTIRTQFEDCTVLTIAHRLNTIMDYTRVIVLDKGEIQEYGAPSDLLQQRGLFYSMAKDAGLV
The target in series [6] is T1, P-gp (L-MDR1 cells). In words: Bidirectional transport study in L-MDR1 cells. The note with it: LLC-PK1. Type of series: in vitro ADME.
The nature of a further series: in vitro. The note with it: human, MDCK-MDR1.
For series [7] the following is noted: cited from earlier work.
Series [8] relates to P-gp (MDCKI-MDR1 cells). The note with it: MDCKI-MDR1 and L-MDR1 cells; cited from earlier work.
The next series has as its target P-gp (MDCKII-MDR1 cells) (Homo sapiens, UniProt P08183). The note with it: MDCKII vs MDCKII-MDR1; cited from earlier work.

T1 sequence (P08183 whole entry): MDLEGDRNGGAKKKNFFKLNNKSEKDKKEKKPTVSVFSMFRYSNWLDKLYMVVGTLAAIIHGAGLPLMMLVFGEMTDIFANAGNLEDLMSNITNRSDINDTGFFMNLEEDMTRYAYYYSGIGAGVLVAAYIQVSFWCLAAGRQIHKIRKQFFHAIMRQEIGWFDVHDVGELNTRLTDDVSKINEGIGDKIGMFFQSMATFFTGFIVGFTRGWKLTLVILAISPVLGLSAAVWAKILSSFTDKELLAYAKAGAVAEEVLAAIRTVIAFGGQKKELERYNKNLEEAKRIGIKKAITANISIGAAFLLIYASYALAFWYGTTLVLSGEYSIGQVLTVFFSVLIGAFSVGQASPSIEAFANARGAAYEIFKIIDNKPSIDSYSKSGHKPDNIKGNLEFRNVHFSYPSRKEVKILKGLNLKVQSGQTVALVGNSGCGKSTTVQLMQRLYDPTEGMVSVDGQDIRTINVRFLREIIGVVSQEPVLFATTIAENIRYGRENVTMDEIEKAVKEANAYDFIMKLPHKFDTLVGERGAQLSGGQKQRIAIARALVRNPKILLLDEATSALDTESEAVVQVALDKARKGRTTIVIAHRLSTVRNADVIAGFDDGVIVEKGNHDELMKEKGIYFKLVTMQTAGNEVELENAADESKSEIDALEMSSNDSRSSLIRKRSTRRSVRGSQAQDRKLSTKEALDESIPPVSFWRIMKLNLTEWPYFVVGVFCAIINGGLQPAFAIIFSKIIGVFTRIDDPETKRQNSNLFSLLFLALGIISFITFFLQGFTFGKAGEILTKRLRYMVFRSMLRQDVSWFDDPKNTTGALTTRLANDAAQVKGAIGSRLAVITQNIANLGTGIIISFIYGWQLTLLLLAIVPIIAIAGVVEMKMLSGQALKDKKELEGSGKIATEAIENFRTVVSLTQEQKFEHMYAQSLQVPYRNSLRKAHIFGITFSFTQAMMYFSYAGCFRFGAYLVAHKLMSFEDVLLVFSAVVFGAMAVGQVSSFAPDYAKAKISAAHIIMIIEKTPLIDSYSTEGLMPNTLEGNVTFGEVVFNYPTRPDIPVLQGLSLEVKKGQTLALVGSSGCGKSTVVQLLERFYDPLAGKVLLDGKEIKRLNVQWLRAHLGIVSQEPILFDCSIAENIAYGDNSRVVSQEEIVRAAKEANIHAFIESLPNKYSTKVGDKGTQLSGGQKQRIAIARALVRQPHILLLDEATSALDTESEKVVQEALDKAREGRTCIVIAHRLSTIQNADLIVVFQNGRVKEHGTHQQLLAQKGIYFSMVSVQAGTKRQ
Sequence of P-gp (MDCKII-MDR1 cells) (P08183 whole entry): as above

Consider `CC[C@]1(O)C[C@@H]2CN(CCc3c([nH]c4ccccc34)[C@@](C(=O)OC)(c3cc4c(cc3OC)N(C)[C@H]3[C@@](O)(C(=O)OC)[C@H](OC(C)=O)[C@]5(CC)C=CCN6CC[C@]43[C@@H]65)C2)C1` [vinblastine], for which, in the series with P-gp (MDCKI-MDR1 cells) [1], the “P-gp substrate status from transport studies” value is listed as “substrate of P-gp”. In addition, the figures for the “difference in transport between LLC-PK1 and L-MDR1 cells” value on P-gp (L-MDR1 cells) [2] and on P-gp (L-MDR1 cells) [2] (listed as Vinblastine) were “no difference” and “did not show differences”, respectively. The “effect on ciprofloxacin transport in MDCKI cells (in words)” value (“effect on ciprofloxacin transport” below) in the series with MDCKI cells is given as “no significant effects”.
As for `CCCN(CCC)S(=O)(=O)c1ccc(C(=O)O)cc1` [probenecid], the “effect on ciprofloxacin renal secretion” value in series [3] is on record as “competitively inhibit”. Moreover, the “interaction with OAT3” value in the series with OAT3 is given as “inhibitor of OAT3”.
For `C=C[C@H]1C[N@@]2CC[C@H]1C[C@@H]2[C@@H](O)c1ccnc2ccc(OC)cc12` [quinidine], in the series on MDCKI cells, the “effect on ciprofloxacin transport” value is recorded as “no significant effects”.
Same read-out and setting: with `COc1cc2c(cc1OC)CN(CCc1ccc(NC(=O)c3cccc4c(=O)c5cccc(OC)c5[nH]c34)cc1)CC2` [GG918] the entry was “no significant effects”.
Consider `CN(CC(=O)O)C(=O)CN` [glycosarcosine] (H-Gly-[Sar]-OH), for which, in the series on MDCKI cells, the “effect on ciprofloxacin transport” value is “no significant effects; also recorded: no effect”.
The Papp is the rate of passage across a membrane or cell layer, normalised by area and donor concentration. The low end stands for slow passage, the high end for fast passage. For `OC[C@@H](O)[C@@H](O)[C@H](O)[C@H](O)CO` [mannitol], the Papp at 1 h in series [4] is around 0.5 ×10⁻⁶ cm/s; in [5] it was around 1.3 ×10⁻⁶ cm/s; on MRP1 (L-MRP1 cells) it was around 3.5 ×10⁻⁶ cm/s; at P-gp (L-MDR1 cells) [6], around 1.2 ×10⁻⁶ cm/s; in “in vitro”, around 0.5 ×10⁻⁶ cm/s.
For `O=C(O)c1cn(C2CC2)c2cc(N3CCNCC3)c(F)cc2c1=O` [ciprofloxacin], the “eliminated via intestinal secretion” value in series [7] is given as “at least 10%”.
On to `COc1cc(Cc2cnc(N)nc2N)cc(OC)c1OC` [trimethoprim], for which, in the series on P-gp (MDCKI-MDR1 cells) [8], the “P-gp substrate status from transport studies” value is on record as “substrate of P-gp”. Moreover, on P-gp (MDCKII-MDR1 cells), the “difference in transport between MDCKII and MDCKII-MDR1 cells” value is on record as “no difference”.
